In the supplement of paper PMC11061612:

How the values were obtained:
Assay in all cases: combination Emax (second highest fraction inhibited in the dose matrix, 72 h); higher = more inhibition; extreme values may be limits of the assay
[1] = test system: HC-1 (Other Blood Carcinomas)
How it was run: (§1)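 Cell lines grown in DMEM/F12 or RPMI with 10% FBS were plated in 1536-well plates and held 24 hours at 37°C, 5% CO2 before 72 hours of exposure to two-drug dose matrices, with DMSO typically at 0.2%. CellTiter-Glo 2.0 luminescence gave viability, which was converted to inhibition. Vehicle wells were set to 0 and blank wells to 1. Combination Emax is the second-highest inhibition in the matrix, and Bliss excess is the observed combination effect minus the expected EA + EB − EA·EB, where EA and EB are the single-agent effects.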

[2] = test system: SCC-9 (Oral Cavity Carcinoma)
How it was run: as §1

[3] = test system: BV-173 (Chronic Myelogenous Leukemia)
How it was run: as §1

A704 (Kidney Carcinoma) = test system: A704 (Kidney Carcinoma)
How it was run: as §1

[4] = test system: H-EMC-SS (Chondrosarcoma)
How it was run: as §1

[5] = test system: DG-75 (Burkitt's Lymphoma)
How it was run: as §1

NH-12 (Neuroblastoma) = test system: NH-12 (Neuroblastoma)
How it was run: as §1

EW-3 (Ewing's Sarcoma) = test system: EW-3 (Ewing's Sarcoma)
How it was run: as §1

[6] = test system: SNU-C1 (Colorectal Carcinoma)
How it was run: as §1

[7] = test system: KP-2 (Pancreatic Carcinoma)
How it was run: as §1

[8] = test system: HuP-T3 (Pancreatic Carcinoma)
How it was run: as §1

[9] = test system: VMRC-LCD (Lung Adenocarcinoma)
How it was run: as §1

[10] = test system: NCI-H1573 (Lung Adenocarcinoma)
How it was run: as §1

[11] = test system: LC4-1 (B-Lymphoblastic Leukemia)
How it was run: as §1

Compound	combination Emax [1]	combination Emax [2]	combination Emax [3]	combination Emax (A704 (Kidney Carcinoma))	combination Emax [4]	combination Emax [5]	combination Emax (NH-12 (Neuroblastoma))	combination Emax (EW-3 (Ewing's Sarcoma))	combination Emax [6]	combination Emax [7]	combination Emax [8]	combination Emax [9]	combination Emax [10]	combination Emax [11]
CN(C)CCCOc1ccc(-c2ccc3ncc4c(c3c2)n(C2CCOCC2)c(=O)n4C)cn1 [AZD0156] + C=CCn1c(=O)c2cnc(Nc3ccc(N4CCN(C)CC4)cc3)nc2n1-c1cccc(C(C)(C)O)n1 [AZD1775] (first compound max 1 µM, partner max 1 µM)	0.994	0.168	0.995	0.379	0.346	0.759	0.877	0.357	0.295	0.147	0.205	0.357	0.159	0.916
C=CCn1c(=O)c2cnc(Nc3ccc(N4CCN(C)CC4)cc3)nc2n1-c1cccc(C(C)(C)O)n1 [AZD1775] + C1CN(CCC1(C(=O)N[C@@H](CCO)C2=CC=C(C=C2)Cl)N)C3=NC=NC4=C3C=CN4 [Capivasertib] (first compound max 3 µM, partner max 3 µM)	0.982	0.638	–	0.438	0.464	0.922	0.852	0.518	0.568	0.498	0.655	–	0.604	0.884
CN(CCO)CC[C@H](CSc1ccccc1)Nc1ccc(S(=O)(=O)NC(=O)c2ccc(N3CCC([C@@H](O)c4ccccc4-c4ccc(Cl)cc4)CC3)cc2)cc1S(=O)(=O)C(F)(F)F [AZD4320] + CN(C)CCCOc1ccc(-c2ccc3ncc4c(c3c2)n(C2CCOCC2)c(=O)n4C)cn1 [AZD0156] (first compound max 1 µM, 7x7, partner max 1 µM)	0.424	0.26	0.95	0.496	0.46	0.336	0.909	0.95	0.439	0.897	–	0.0958	0.2	1
COc1nnc2ccc(N3CCC(c4ccc(OCCN5CCN(C)C(=O)[C@H]5C)cc4)CC3)nn12 [AZD5153] + CN(CC[C@H](CSC1=CC=CC=C1)NC2=C(C=C(C=C2)S(=O)(=O)NC(=O)C3=CC=C(C=C3)N4CCC(CC4)[C@H](C5=CC=CC=C5C6=CC=C(C=C6)Cl)O)S(=O)(=O)C(F)(F)F)CCO [AZD4320] (first compound max 1 µM, 7x7, partner max 1 µM)	0.695	–	0.957	0.768	–	0.881	0.91	–	–	0.945	0.512	–	0.356	–
Cc1c2c(nn1C)CSCc1cc(n(C)n1)CSc1cc(c3ccccc3c1)OCCCc1c(C(=O)O)n(C)c3c-2c(Cl)ccc13 [AZD5991] + C=CCn1c(=O)c2cnc(Nc3ccc(N4CCN(C)CC4)cc3)nc2n1-c1cccc(C(C)(C)O)n1 [AZD1775] (first compound max 1 µM, partner max 1 µM)	0.994	0.331	0.942	0.43	0.399	0.92	0.918	0.701	0.395	–	0.457	0.506	0.427	0.986
CS(=O)(=O)CCNCc1ccc(-c2ccc3ncnc(Nc4ccc(OCc5cccc(F)c5)c(Cl)c4)c3c2)o1 [Lapatinib] + NC1(c2ccc(-c3nc4ccn5c(=O)[nH]nc5c4cc3-c3ccccc3)cc2)CCC1 [MK-2206] (first compound max 10 µM, 7x7, partner max 10 µM)	–	0.972	–	–	0.316	–	–	0.87	0.631	–	–	0.205	0.723	0.954
CC(=O)c1c(C)c2cnc(Nc3ccc(N4CCNCC4)cn3)nc2n(C2CCCC2)c1=O [Palbociclib] + CN(CC[C@H](CSC1=CC=CC=C1)NC2=C(C=C(C=C2)S(=O)(=O)NC(=O)C3=CC=C(C=C3)N4CCC(CC4)[C@H](C5=CC=CC=C5C6=CC=C(C=C6)Cl)O)S(=O)(=O)C(F)(F)F)CCO [AZD4320] (first compound max 10 µM, 7x7, partner max 1 µM)	0.831	–	0.958	0.935	–	0.735	0.988	–	–	0.743	0.274	–	0.306	–
C[C@@H](c1ccc2nccn2c1)n1nnc2ncc(-c3cnn(C)c3)nc21 [Savolitinib] + CN(CC[C@H](CSC1=CC=CC=C1)NC2=C(C=C(C=C2)S(=O)(=O)NC(=O)C3=CC=C(C=C3)N4CCC(CC4)[C@H](C5=CC=CC=C5C6=CC=C(C=C6)Cl)O)S(=O)(=O)C(F)(F)F)CCO [AZD4320] (first compound max 1 µM, 7x7, partner max 1 µM)	0.546	–	0.954	0.449	–	0.057	0.824	–	–	0.855	0.203	–	0.218	–
